The text below walks through data of patent US20250163057A1, “DCN-1 MODULATING COMPOUNDS AND METHODS OF USE THEREOF” (Cellarity, Inc., priority 2023, published 2025).

Assay [1] relates to fetal hemoglobin gene HBG1. Briefly: HBG1 Nanostring Assay in CD34+ HSPC erythroid differentiation culture. As to conditions: for EC50: HBG1 induction, Day10 of erythroid differentiation; for Nanostring Ymax obs (%): relative to a control compound (C1). The assay is classed as cell-based, human. On the procedure: A Nanostring Assay was performed to evaluate the ability of the compounds to induce expression of the fetal hemoglobin gene HBG1 in cells. The data are shown as EC50, with stronger inducers having a lower EC50 value and higher YMax.
Forty eight hours later (day −2), the cells were passaged at a density of 200,000 cells/ml (100 ul/well in 96well culture plate) in complete expantion media. The cells were plated at 200,000 cells/ml on day 0 and day 3, 400,000 cells/ml on day 5 in phase 1 erythroid differentiation containing StemSpan with 2.5 U/mL of EPO (R&D systems, 287-TC-500), 0.5 mg/mL of Holo-Transferrin (Sigma, T0665-500MG), 1× Glutamine (Gluta-Max) (Gibco, 35050-061), 5 μL/mL Lipid Mixture (Sigma, L0288-100ML), 50 ng/mL SCF (R&D Systems, 255-SV-050), 10 ng/mL IL-3 (R&D Systems, 203-IL010) and 10 ng/mL Insulin (Sigma, I9278-5ML) all 200 μl per well in 96 well culture plate. Cells were then passaged at 500,000 cells/ml and 200 μl per well on day 7 in phase 2 Erythroid differentiation (Phase 1 erythroid differentiation removing IL-3) until collection day (Day10). The culture conditions were used for both control DMSO as well as experimental treatments.
For all cell pasagings, cells were centrifuged at 300 g for 8 minutes at room temperature and cell number were normalized by MANTIS and Integra VIAFLO 384. All the compounds are diluted in DMSO and added to complete media by Formulatrix FAST and mixed starting from day −2. Cells were counted by Luna cell counter with AOPI Staining Solution (Nexcelom Bioscience, CS2-0106-25 mL) on day-2. Cells were counted by BD FACSCelesta Flow Cytometer with CountBright™ Plus Absolute Counting Beads (Thermal Fisher Scientific, C36995) and SYTOX AADvanced™ Ready Flow™ Reagent (Invitrogen, R37173) for other passages. Cells were cultured at 37° C. and 5% CO2. DMSO concentration was kept at 0.1% to minimize any effects to the cells by the vehicle. […] Compound plates were kept at room temperature to protect from light to avoid multiple freeze and thaw cycle.
On the collection day (Day10), 100K cells were collected and stored at −80° C. For direct hybridization for Nanostring, 100K cell pellet was lyzed in 25 μL of RLT (QIAGEN, 79216) with 1×β-Mercaptoethanol (Gibco, 21985-023) and shaked at 300-500 RPM for 5 minutes at room temperature. Cell lysate was stored in −80° C. after lysis.
All hybridizations were done in a total volume of 15 μL (3 μL of RNA lysate added to master mix of 12 μL probe A/B, capture probe/reporter probes, proteinase K and attenuation oligos suspended in hybridization buffer). Samples were hybridized at 67° C. for 22 hr. Following hybridization, the tripartide complexes were purified, immobilized by nCounter Prep Station and imaged by Digital Analyzer (nCounter MAX/FLEX Analysis System), to generate digital counts of barcodes corresponding to each target in the multiplexed reaction. Labeled barcodes obtained from unamplified extracts were counted at 555 images or field of view (FOV). The barcode counts for each sample were recorded in Reporter Code Count (RCC) files that are imported into nSolver analysis software (provided with CodeSet by NS) for quality control evaluation.
The quality control (QC) metric included limit of detection QC by checking for wells with less than 100 total counts for positive controls.
Hybridization signals were normalized against the ERCC positive controls and CodeSet Content (housekeeping gene). Briefly, this involved first calculating a sample-specific scaling factor by calculating arithmetic mean of geomeans of all ERCC positive controls with counts more than zero in all samples. Then this arithmetic mean was divided by the geometric mean of each lane to generate a lane-specific normalization factor. All negative controls and target-specific signal values were then normalized by multiplying counts values with their sample-specific scaling factor. The acceptable range for scaling factors is 0.3-3.0. […]

Assay [2] addresses DCN1 (DCUND1) protein PONY domain (Homo sapiens (Human), UniProt Q96GG9). Briefly: TR-FRET assay, DCN1 binding with FAM-labeled probe. In outline: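 TR-FRET ratio (Tb-DCN1 to FAM-probe) read at 1, 5 and 24 hrs after compound addition. Protein: recombinant PONY domain from E. coli, biotinylated and coupled to streptavidin terbium. Either 5 nM DCN1 with 20 nM FAM-probe, or 0.31 nM DCN1 with 100 nM FAM-labelled plus 800 nM unlabelled probe.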
On the technique in general: TR-FRET usually uses a lanthanide donor and a delayed reading to cut background.

The subject of assay [3] is Cullin-3 (CUL3) neddylation. Description: AlphaLISA assay for Cullin-3 (CUL3) neddylation in TF 1 cells. Particulars: 3 hours treatment. It is filed as cell-based. The method in brief:
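TF 1 cells in unsupplemented IMDM treated with compound concentrations for 3 h, then lysed. CUL3 neddylation detected by AlphaLISA (biotinylated anti-NEDD8, anti-CUL3 acceptor beads overnight, streptavidin donor beads 1 h); normalized to vehicle (0%) and 1 μM DI-1548 (100%), IC50 from Hill fits.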
(In general: In Alpha technology, singlet oxygen from a donor bead excites a nearby acceptor bead.)

The mark [4] stands for this setting: 24 hr after treatment with compound, read-out: TR FRET IC50 24 hr.
The mark [5] stands for this setting: TR FRET IC50 1 hr (nM), 1 hr after treatment with compound.
The mark [6] stands for this setting: read-out: TR FRET IC50 1 hr, 1 hr after treatment with compound.

Like-named read-outs stand apart in the source and are kept apart here. Bounds are passed on as bounds.

DCN1 (DCUND1) protein PONY domain, sequence (Q96GG9 60-248): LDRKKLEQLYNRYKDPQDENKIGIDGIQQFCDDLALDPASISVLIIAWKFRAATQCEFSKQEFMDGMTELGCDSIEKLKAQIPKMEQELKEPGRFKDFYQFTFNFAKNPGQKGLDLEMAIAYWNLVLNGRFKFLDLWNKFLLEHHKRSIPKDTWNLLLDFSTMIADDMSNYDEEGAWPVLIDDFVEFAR

The term EC50 denotes the concentration at which the effect is half-maximal. A higher EC50 goes with a need for much substance. As usually defined, the IC50 is the midpoint of a concentration-inhibition curve. `CCN1C(=O)[C@@H](NC(=O)c2cccc(C(F)(F)F)c2)[C@@H](c2ccc(F)cc2)c2c(CN(C#N)CCCO)nn(-c3ccccc3)c21` (racemic) [Compound I-246, N-[rac-(4S,5S)-3-[[cyano(3-hydroxypropyl)amino]methyl]-7-ethyl-4-(4-fluorophenyl)-6-oxo-1-phenyl-4,5-dihydropyrazolo[3,4-b]pyridine-5-yl]-3-(trifluoromethyl)benzamide] registered an EC50 in assay [1] (Homo sapiens, 240 h) of more than 1 µM. Besides, in assay [1], the “Nanostring Ymax obs (%)” value was “++ (Nanostring Ymax greater than 50.0 and less than or equal to 100.0)”. The IC50 was in the range of 200 to 1000 nM in assay [2] (setting [4]); 200 to 1000 nM in assay [2] (setting [5]); 0.1 to 1 µM in assay [3] (Homo sapiens, TF-1, 3 h).

On to `C=C(CN(C)CC1COC1)C(=O)NCc1nn(-c2ccccc2)c2c1[C@H](c1ccc(F)cc1)[C@H](NC(=O)c1cccc(C(F)(F)F)c1)C(=O)N2CC` [Compound I-574], for which the EC50 in assay [1] (Homo sapiens, 240 h) was not above 0.1 µM. The “Nanostring Ymax obs (%)” value in assay [1] was “++ (Nanostring Ymax greater than 50.0 and less than or equal to 100.0)”. The IC50 in assay [2] (setting [4]) was not above 200 nM; in assay [2] (setting [6]) it was not above 200 nM; in assay [3] (Homo sapiens, TF-1, 3 h) it was not above 0.1 µM.

Take `CCN1C(=O)[C@@H](NC(=O)c2cccc(C(F)(F)F)c2)[C@@H](c2ccc(F)cc2)c2c(CN(C#N)CCCCN(C)C)nn(-c3ccccc3)c21` [Compound I-248, ˜{N}-[(4˜{S},5˜{S})-3-[[cyano-[4-(dimethylamino)butyl]amino]methyl]-7-ethyl-4-(4-fluorophenyl)-6-oxo-1-phenyl-4,5-dihydropyrazolo[3,4-b]pyridine-5-yl]-3-(trifluoromethyl)benzamide]: in assay [1], the “Nanostring Ymax obs (%)” value is “++ (Nanostring Ymax greater than 50.0 and less than or equal to 100.0)”. Also, the IC50 was not above 200 nM in assay [2] (setting [4]); 200 to 1000 nM in assay [2] (setting [5]); not above 0.1 µM in assay [3] (Homo sapiens, TF-1, 3 h).

For the compound `COC(=O)/C=C/CN(C)Cc1nn(-c2ccccc2)c2c1[C@H](c1ccc(F)cc1)[C@H](NC(=O)c1cccc(C(F)(F)F)c1)C(=O)N2CC(C)C` [I-266], the EC50 in assay [1] is more than 1 µM. In addition, the “Nanostring Ymax obs (%)” value in assay [1] is “+ (Nanostring Ymax greater than or equal to 0.0 and less than or equal to 50.0)”. Also, the figures for the concentration for half-maximal inhibition (IC50) in assay [2] (setting [4]), in assay [2] (setting [6]) and in assay [3] were 200 to 1000 nM, 200 to 1000 nM and 0.1 to 1 µM, respectively.

For the compound `C=C(C(=O)NCc1nn(-c2ccccc2)c2c1[C@H](c1ccc(F)cc1)[C@H](NC(=O)c1cccc(C(F)(F)F)c1)C(=O)N2CC)C(C)N1CCOCC1` (mixture of isomers) [Compound I-89], the “Nanostring Ymax obs (%)” value in assay [1] was “++ (Nanostring Ymax greater than 50.0 and less than or equal to 100.0)”. Further, the IC50 in assay [2] (setting [4]) was not above 200 nM; in assay [2] (setting [6]) it was not above 200 nM; in assay [3] (Homo sapiens, TF-1, 3 h), not above 0.1 µM.

In assay [1] (Homo sapiens, 240 h), `CCN1C(=O)[C@@H](NC(=O)c2cccc(C(F)(F)F)c2)[C@@H](c2ccc(F)cc2)c2c([C@H](CCO)NC#N)nn(-c3ccccc3)c21` (mixture of isomers) [Compound I-576] displayed an EC50 of more than 1 µM. For the same compound, in assay [1], the “Nanostring Ymax obs (%)” value is “+ (Nanostring Ymax greater than or equal to 0.0 and less than or equal to 50.0)”. Moreover, the IC50 in assay [2] (setting [4]) was not above 200 nM; in assay [2] (setting [5]), 200 to 1000 nM; in assay [3] (Homo sapiens, TF-1, 3 h) it was not above 0.1 µM.

For the compound `C=C(CN1C2COCC1C2)C(=O)NCc1nn(-c2ccccc2)c2c1[C@H](c1ccc(F)cc1)[C@H](NC(=O)c1cccc(C(F)(F)F)c1)C(=O)N2CC` (mixture of isomers) [Compound I-573], in assay [1], the “Nanostring Ymax obs (%)” value was “++ (Nanostring Ymax greater than 50.0 and less than or equal to 100.0)”. Further, the IC50 is not above 200 nM in assay [2] (setting [4]); not above 200 nM in assay [2] (setting [6]); not above 0.1 µM in assay [3] (Homo sapiens, TF-1, 3 h).

Consider `C=C(CN1CC2CC1C2)C(=O)NCc1nn(-c2ccccc2)c2c1[C@H](c1ccc(F)cc1)[C@H](NC(=O)c1cccc(C(F)(F)F)c1)C(=O)N2CC` (mixture of isomers) [Compound I-456], for which the “Nanostring Ymax obs (%)” value in assay [1] is “++ (Nanostring Ymax greater than 50.0 and less than or equal to 100.0)”. For the same compound, the IC50 in assay [2] (setting [4]) was not above 200 nM; in assay [2] (setting [6]) it was not above 200 nM; in assay [3] (Homo sapiens, TF-1, 3 h) it was not above 0.1 µM.

Compound `CCN1C(=O)[C@H](NC(=O)c2cccc(C(F)(F)F)c2)[C@H](c2ccc(F)cc2)c2c(C(=O)N3C[C@H](F)C[C@@H]3C#N)nn(-c3ccccc3)c21` (mixture of isomers) [Compound I-253, N-((4RS,5RS)-3-((2R,4R)-2-cyano-4-fluoropyrrolidine-1-carbonyl)-7-ethyl-4-(4-fluorophenyl)-6-oxo-1-phenyl-4,5,6,7-tetrahydro-1H-pyrazolo[3,4-b]pyridine-5-yl)-3-(trifluoromethyl)benzamide] displayed an EC50 in assay [1] (Homo sapiens, 240 h) of more than 1 µM. In assay [1], the “Nanostring Ymax obs (%)” value was “++ (Nanostring Ymax greater than 50.0 and less than or equal to 100.0)”. Also, the IC50 in assay [2] (setting [4]) was not above 200 nM; in assay [2] (setting [5]), 1000 to 3000 nM; in assay [3] (Homo sapiens, TF-1, 3 h), not above 0.1 µM.

For `CCN1C(=O)[C@@H](NC(=O)c2cccc(C(F)(F)F)c2)[C@@H](c2ccc(F)cc2)c2c(CN(C#N)CCCN(C)C)nn(-c3ccccc3)c21` [Compound I-247, ˜{N}-[(4˜{S},5˜{S})-3-[[cyano-[3-(dimethylamino)propyl]amino]methyl]-7-ethyl-4-(4-fluorophenyl)-6-oxo-1-phenyl-4,5-dihydropyrazolo[3,4-b]pyridine-5-yl]-3-(trifluoromethyl)benzamide], the EC50 in assay [1] (Homo sapiens, 240 h) was more than 1 µM. Moreover, in assay [1], the “Nanostring Ymax obs (%)” value is “++ (Nanostring Ymax greater than 50.0 and less than or equal to 100.0)”. For the same compound, the IC50 in assay [2] (setting [4]) is not above 200 nM; in assay [2] (setting [6]), not above 200 nM; in assay [3] (Homo sapiens, TF-1, 3 h), not above 0.1 µM.

In turn, `CCN1C(=O)[C@@H](NC(=O)c2cccc(C(F)(F)F)c2)[C@@H](c2ccc(F)cc2)c2c(CN(C)C/C=C/C(=O)OC)nn(-c3ccccc3)c21` (racemic) [Compound I-250, rac-methyl I-4-((((4R,5R)-7-ethyl-4-(4-fluorophenyl)-6-oxo-1-phenyl-5-(3-(trifluoromethyl)benzamido)-4,5,6,7-tetrahydro-1H-pyrazolo[3,4-b]pyridine-3-yl)methyl)(methyl)amino)but-2-enoate] gave an EC50 in assay [1] (Homo sapiens, 240 h) of more than 1 µM. The “Nanostring Ymax obs (%)” value in assay [1] was “++ (Nanostring Ymax greater than 50.0 and less than or equal to 100.0)”. Moreover, the half-maximal inhibitory concentration (IC50) was not above 200 nM in assay [2] (setting [4]); 200 to 1000 nM in assay [2] (setting [5]); not above 0.1 µM in assay [3] (Homo sapiens, TF-1, 3 h).

Regarding `C=C(CN1CCC12COC2)C(=O)NCc1nn(-c2ccccc2)c2c1[C@H](c1ccc(F)cc1)[C@H](NC(=O)c1cccc(C(F)(F)F)c1)C(=O)N2CC` [Compound I-644], the EC50 in assay [1] (Homo sapiens, 240 h) was more than 1 µM. In addition, the “Nanostring Ymax obs (%)” value in assay [1] was “++ (Nanostring Ymax greater than 50.0 and less than or equal to 100.0)”. In addition, the concentration for half-maximal inhibition (IC50) is not above 200 nM in assay [2] (setting [4]); not above 200 nM in assay [2] (setting [6]); not above 0.1 µM in assay [3] (Homo sapiens, TF-1, 3 h).
